In patent publication US20240279202A1 (NURIX THERAPEUTICS, INC., priority 2021, published 2024):

Target: T1, ITK (Homo sapiens, UniProt Q08881)
T1 sequence (Q08881 1-620): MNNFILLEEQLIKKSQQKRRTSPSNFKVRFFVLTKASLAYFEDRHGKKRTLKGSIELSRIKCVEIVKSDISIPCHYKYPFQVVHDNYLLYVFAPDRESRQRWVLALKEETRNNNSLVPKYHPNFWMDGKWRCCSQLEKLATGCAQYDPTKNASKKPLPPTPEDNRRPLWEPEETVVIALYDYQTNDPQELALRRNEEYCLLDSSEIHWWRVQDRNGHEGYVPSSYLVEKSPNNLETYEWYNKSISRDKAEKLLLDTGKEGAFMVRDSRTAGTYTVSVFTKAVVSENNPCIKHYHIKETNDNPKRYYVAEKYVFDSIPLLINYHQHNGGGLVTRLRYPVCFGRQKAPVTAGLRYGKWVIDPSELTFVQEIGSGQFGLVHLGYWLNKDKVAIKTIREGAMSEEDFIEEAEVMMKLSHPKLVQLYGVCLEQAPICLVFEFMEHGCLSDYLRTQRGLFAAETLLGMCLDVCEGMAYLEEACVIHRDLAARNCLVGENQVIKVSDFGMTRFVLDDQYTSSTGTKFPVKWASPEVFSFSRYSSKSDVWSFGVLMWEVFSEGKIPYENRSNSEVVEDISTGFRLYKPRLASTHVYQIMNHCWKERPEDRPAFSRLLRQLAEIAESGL
Experiment: ITK degradation HiBiT assay
Assay type: cell-based
Parameters: expressed in transfected cells; host or cells: Molt4 (ATCC CRL-1552), monoclonal clone 1C10, engineered to carry the HiBiT tag
Settings: 4 hrs; for Dmax: MOLT-4, C-terminal HiBiT-tagged Molt4 cells; for DC50: C-terminal HiBiT-tagged Molt4 cells
Method: Itk Degradation Hibit Assay
Compounds provided herein were assayed in vitro with ITK HiBit cell lines. Compound dilution series (11-point, 5 fold dilutions in DMSO, columns 2-12 with replicate in rows A/B, C/D, E/F, G,H at 2000× the final required concentrations were prepared in 96 well plates (Falcon, cat. no. 353077). Column 1, rows A-H were control DMSO. The 2000× solutions ranged from 2 mM to 1.024 nM (final assay concentration range 1 μM to […]). The 2000× solutions were added to cells in […], for a final DMSO concentration of 0.5% and final assay compound concentration of 1×. For the cells, C-terminal HiBiT-tagged Molt4 cells (ATCC CRL-1552, monoclonal cell line clone 1C10) were plated at 1×10^6 cells/mL, 100 μL/well ([…]) in complete RPMI (10% FBS, 1% L-glutamine). The cells were incubated with compound 10 and compound 17 for 4 hrs at […]/6% CO2.
Following incubation, 100 μL of complete Nano-Glo HiBiT Lytic Detection Reagent (Nano-Glo HiBiT Lytic Buffer with 1:50 Nano-Glo HiBiT Lytic Substrate and 1:100 LgBiT Protein; Promega cat. no. N3040) was added. Cells were further incubated for 10 min at room temperature (RT). Luminescence units (LU) were read on an EnVision plate reader (Perkin Elmer, 0.1 sec per well). Percent ITK remaining per sample was calculated as follows: […]
Using Graphpad Prism, % ITK remaining values were plotted as a function of compound concentration. To determine DC50 and Dmax values, resulting curves were fit to the Prism curve-fitting equation “log(inhibitor) vs response—Variable slope (four parameters)” (reported best fit value IC50 used as DC50). ITK was measured with antibody-based MSD (Meso-Scale Discovery) assays shown below.

| SMILES | Dmax [%] | DC50 [nM] |
| --- | --- | --- |
| Cc1nc(N2CCC(CN3CCN(C(=O)c4ccc5cc(-c6n[nH]c7c6CCC(C)(C)C7)[nH]c5c4)CC3)CC2)ccc1C1CCC(=O)NC1=O (centres unmarked) [Compound 181] | 61 | – |
| CN(c1ccc(C2CCC(=O)NC2=O)cn1)C1CCN(CC2CCN(C(=O)c3ccc4cc(-c5n[nH]c6c5CCC(C)(C)C6)[nH]c4c3)CC2)CC1 (centres unmarked) [Compound 62, 3-(6-((1-((1-(2-(6,6-dimethyl-4,5,6,7-tetrahydro-1H-indazol-3-yl)-1H-indole-6-carbonyl)piperidin-4-yl)methyl)piperidin-4-yl)(methyl)amino)pyridin-3-yl)piperidine-2,6-dione] | 72 | 0.002 |
| C[C@@]12Cc3[nH]nc(C(=O)Nc4cnn([C@H]5CCN(C[C@H]6CCN(c7ccc(C8CCC(=O)NC8=O)cc7)C6)C[C@@H]5F)c4)c3C[C@@H]1C2(F)F (stereo partly drawn) [Compound 98, (4aS,5aR)-N-(1-((3S,4S)-1-(((3R)-1-(4-(2,6-dioxopiperidin-3-yl)phenyl)pyrrolidin-3-yl)methyl)-3-fluoropiperidin-4-yl)-1H-pyrazol-4-yl)-5,5-difluoro-5a-methyl-1,4,4a,5,5a,6-hexahydrocyclopropa[f]indazole-3-carboxamide] | 89 | 0.7 |
| C[C@@]12Cc3[nH]nc(-c4cc5cc(F)c(C(=O)N6CCN(C[C@H]7CCN(c8ccc(C9CCC(=O)NC9=O)cc8)C7)CC6)cc5[nH]4)c3C[C@@H]1C2(F)F (some centres unmarked) [Compound 145] | 75 | – |
| C[C@@]12Cc3[nH]nc(C(=O)Nc4cnn(C5CCN(CC6CCN(c7ccc(C8CCC(=O)NC8=O)cc7)CC6)CC5)c4)c3C[C@@H]1C2(F)F (stereo partly drawn) [Compound 92, (4aS,5aR)-N-(1-(1-((1-(4-(2,6-dioxopiperidin-3-yl)phenyl)piperidin-4-yl)methyl)piperidin-4-yl)-1H-pyrazol-4-yl)-5,5-difluoro-5a-methyl-1,4,4a,5,5a,6-hexahydrocyclopropa[f]indazole-3-carboxamide] | 89 | < 0.01 |
| C[C@@]12Cc3[nH]nc(-c4cc5ccc(C(=O)N6CCN(CC7CCN(c8ccc(C9CCC(=O)NC9=O)cc8)CC7)CC6)cc5[nH]4)c3C[C@@H]1C2(F)F (stereo partly drawn) [Compound 135, 3-(4-(4-((4-(2-((4aS,5aR)-5,5-difluoro-5a-methyl-1,4,4a,5,5a,6-hexahydrocyclopropa[f]indazol-3-yl)-1H-indole-6-carbonyl)piperazin-1-yl)methyl)piperidin-1-yl)phenyl)piperidine-2,6-dione] | 85 | < 0.01 |
| CC1(C)CCc2c(-c3cc4cc(F)c(C(=O)N5CCN(CC6CCN(c7ccc(C8CCC(=O)NC8=O)cn7)CC6)CC5)cc4[nH]3)n[nH]c2C1 (centres unmarked) [Compound 136, 3-(6-(4-((4-(2-(6,6-dimethyl-4,5,6,7-tetrahydro-1H-indazol-3-yl)-5-fluoro-1H-indole-6-carbonyl)piperazin-1-yl)methyl)piperidin-1-yl)pyridin-3-yl)piperidine-2,6-dione] | 80 | 0.45 |
| C[C@@H]1CN(C(=O)c2ccc3cc(-c4n[nH]c5c4C[C@@H]4C(F)(F)[C@]4(C)C5)[nH]c3c2)CCN1CC1CCN(c2ccc(C3CCC(=O)NC3=O)cc2)CC1 (some centres unmarked) [Compound 159] | 84 | – |
| CC1(C)CCc2c(-c3cc4ccc(C(=O)N5CCN(CC6CCN(c7ccc(C8CCC(=O)NC8=O)c(F)c7)CC6)CC5)cc4[nH]3)n[nH]c2C1 (centres unmarked) [Compound 221, 3-(4-(4-((4-(2-(6,6-dimethyl-4,5,6,7-tetrahydro-1H-indazol-3-yl)-1H-indole-6-carbonyl)piperazin-1-yl)methyl)piperidin-1-yl)-2-fluorophenyl)piperidine-2,6-dione] | 84 | 3.57 |
| C[C@@]12Cc3[nH]nc(C(=O)Nc4cnn(C5CCC(CN6CCc7cc(C8CCC(=O)NC8=O)ccc7C6)CC5)c4)c3C[C@@H]1C2(F)F (mixture of isomers) [Compound 123, (4aS,5aR)-5,5-difluoro-5a-methyl-N-{1-[(lsr,4sr)-4-({6-[(3RS)-2,6-dioxopiperidin-3-yl]-1,2,3,4-tetrahydroisoquinolin-2-yl}methyl)cyclohexyl]-1H-pyrazol-4-yl}-1H,4H,4aH,5H,5aH,6H-cyclopropa[f]indazole-3-carboxamide] | 63 | 63.1 |
| CC1(C)CCc2c(-c3cc4ccc(C(=O)N5CCN(CC6CCN(c7ccc(C8CCC(=O)NC8=O)cn7)CC6)C(C)(C)C5)cc4[nH]3)n[nH]c2C1 (centres unmarked) [Compound 133, 3-(6-(4-((4-(2-(6,6-dimethyl-4,5,6,7-tetrahydro-1H-indazol-3-yl)-1H-indole-6-carbonyl)-2,2-dimethylpiperazin-1-yl)methyl)piperidin-1-yl)pyridin-3-yl)piperidine-2,6-dione] | 86 | 1.6 |
| CC1(C)CCc2c(C(=O)Nc3cnn([C@H]4CC[C@H](C(=O)N5CCN(c6ccc(C7CCC(=O)NC7=O)cn6)CC5)CC4)c3)n[nH]c2C1 (mixture of isomers) [Compound 175] | 65 | – |
| C[C@@H](C(=O)N(C)c1ccc2cc(-c3n[nH]c4c3C[C@@H]3C(F)(F)[C@]3(C)C4)[nH]c2c1)N1CCN(CC2CCN(c3cc(C4CCC(=O)NC4=O)ccn3)CC2)CC1 (stereo partly drawn) [Compound 23, (2S)—N-(2-((4aS,5aR)-5,5-difluoro-5a-methyl-1,4,4a,5,5a,6-hexahydrocyclopropa[f]indazol-3-yl)-1H-indol-6-yl)-2-(4-((1-(4-(2,6-dioxopiperidin-3-yl)pyridin-2-yl)piperidin-4-yl)methyl)piperazin-1-yl)-N-methylpropanamide] | 82 | < 0.001 |
| C[C@@]12Cc3[nH]nc(C(=O)Nc4cnn(C5CCN(C(=O)C6CCC(Oc7ccc(C8CCC(=O)NC8=O)cn7)CC6)CC5)c4)c3C[C@@H]1C2(F)F (mixture of isomers) [Compound 168] | 88 | – |
| C[C@@]12Cc3[nH]nc(C(=O)Nc4cnn(C5CCN(CC6CCN(c7ccc([C@H]8CCC(=O)NC8=O)cc7F)CC6)CC5)c4)c3C[C@@H]1C2(F)F [Compound 118, (4aS,5aR)-N-(1-{1-[(1-{4-[(3R)-2,6-dioxopiperidin-3-yl]-2-fluorophenyl}piperidin-4-yl)methyl]piperidin-4-yl}-1H-pyrazol-4-yl)-5,5-difluoro-5a-methyl-1H,4H,4aH,5H,5aH,6H-cyclopropa[f]indazole-3-carboxamide] | 77 | 0.467 |
| CC1(C)CCc2c(-c3cc4ccc(N5CCC6(CCN(Cc7ccc8c(c7)C(=O)N(C7CCC(=O)NC7=O)C8=O)CC6)C5=O)cc4[nH]3)n[nH]c2C1 (centres unmarked) [Compound 8, 5-((2-(2-(6,6-dimethyl-4,5,6,7-tetrahydro-1H-indazol-3-yl)-1H-indol-6-yl)-1-oxo-2,8-diazaspiro[4.5]decan-8-yl)methyl)-2-(2,6-dioxopiperidin-3-yl)isoindoline-1,3-dione] | 92 | 7.8 |
| C[C@@]12Cc3[nH]nc(C(=O)Nc4cnn(CC5CCN(CC6CCN(c7ccc(C8CCC(=O)NC8=O)cc7)CC6)CC5)c4)c3C[C@@H]1C2(F)F (mixture of isomers) [Compound 119, (4aS,5aR)-N-[1-({1-[(1-{4-[(3RS)-2,6-dioxopiperidin-3-yl]phenyl}piperidin-4-yl)methyl]piperidin-4-yl}methyl)-1H-pyrazol-4-yl]-5,5-difluoro-5a-methyl-1H,4H,4aH,5H,5aH,6H-cyclopropa[f]indazole-3-carboxamide] | 85 | 0.041 |
| CC1(C)CCc2c(-c3cc4ccc(C(=O)N5CCN(CC6CCN(c7ccc8c(c7)CN(C7CCC(=O)NC7=O)C8=O)CC6)CC5)cc4[nH]3)n[nH]c2C1 (centres unmarked) [Compound 26, 3-{5-[4-({4-[2-(6,6-dimethyl-1,4,5,7-tetrahydroindazol-3-yl)-1H-indole-6-carbonyl]piperazin-1-yl}methyl)piperidin-1-yl]-1-oxo-3H-isoindol-2-yl}piperidine-2,6-dione] | 88 | < 0.01 |
| C[C@@]12Cc3[nH]nc(-c4cc5cc(C(=O)N6CCN(CC7CCN(c8ccc(C(=O)N[C@H]9CCC(=O)NC9=O)nc8)CC7)CC6)ccc5[nH]4)c3C[C@@H]1C2(F)F [Compound 142] | 80 | – |
